Molecules are shown by their SMILES. Structures can show the parent of a compound that is named as a salt. A value given as a limit tells only on which side of the number the result lay.

A short description of data set [1]: Equilibrium water solubility. The data set is classed as physicochemical.
Data set [2] addresses CDK1/cyclin B. The data set can be described thus: CDK1/cyclin B kinase assay. The data set is classed as biochemical, starfish (Marthasterias glacialis). Conditions: read-out: CDK1 IC50, 15 μM ATP.
Data set [3] deals with GSK-3α/β. The experiment in a line: GSK-3α/β kinase assay. The data set is classed as biochemical, porcine. The following applies: for IC50: read-out: GSK3 IC50, GSK-3α/β, 15 μM ATP, from dose-response curves.
Data set [4] concerns GSK-3 -phosphorylated β-catenin. The experiment in a line: β-catenin phosphorylation at GSK-3 sites in SH-SY5Y cells. The data set is classed as cell-based, human. Conditions: 6 h, 10 μM or dose-response, 2 μM MG132.
Data set [5] deals with Rat-1 fibroblasts. The data set can be described thus: Luminescence assay of circadian rhythmicity, PPer2::Fluc reporter. The data set is classed as cell-based. The following applies: 10 μM, Rat-1 PPer2::Fluc, monitored 4 days.
Data set [6] concerns Rat-1 fibroblasts. The following applies: lithium 10-20 mM, mammalian cells; cited from earlier work.

`O=C1Nc2cc(Br)ccc2/C1=C1/Nc2ccccc2/C1=N\OCC(O)CO` (stereo not drawn) [Compound 3, (2′Z-3′E)-6-Bromoindirubin-3′-[O-(2,3-dihydroxypropyl)-oxime]]: the “solubility change versus 6BIO (in words)” value in data set [1] (water) is “mediocre improvement of solubility”. Besides, the concentration for half-maximal inhibition (IC50) (commonly the point on the concentration scale where inhibition reaches its midpoint) in data set [2] was found to be 110 nM. Moreover, the “decrease of activity/affinity on GSK-3 compared to 6BIO” value in data set [3] (relative to 6BIO) is given as 6 fold. Moreover, the “inhibition of β-catenin phosphorylation at GSK-3 specific sites” value (“inhibition of β-catenin phosphorylation” below) in data set [4] is listed as “most efficient”. On to `Cl.Cl.O=C1Nc2cc(Br)ccc2/C1=C1/Nc2ccccc2/C1=N\OCCN1CCNCC1` [Compound 22, (2′Z-3′E)-6-Bromoindirubin-3′-[O-(2-piperazine-1-ylethyl)oxime] Dihydrochloride], for which the “inhibition of β-catenin phosphorylation” value in data set [4] is given as “most efficient”.

On to `O=C1Nc2cc(Br)ccc2/C1=C1/Nc2ccccc2/C1=N\OCCN1CCN(CCO)CC1` [Compound 13, (2′Z-3′E)-6-Bromoindirubin-3′-(O-{2-[4-(2-hydroxyethyl)piperazin-1-yl]ethyl}oxime)], for which the “inhibition of β-catenin phosphorylation” value in data set [4] is on record as “most efficient”. `CN1CCN(CCO/N=C2/C(=C3/C(=O)Nc4cc(Br)ccc43)Nc3ccccc32)CC1` [Compound 12, (2′Z-3′E)-6-Bromoindirubin-3′-{O-[2-(4-methyl-piperazin-1-yl)ethyl]oxime}]: the “selectivity for GSK-3 versus 6BIO” value in data set [3] (GSK-3 over CDKs, compared to 6BIO) is on record as “improved selectivity of one order of magnitude”. Moreover, in data set [4], the “inhibition of β-catenin phosphorylation” value was “most efficient”. With `Cl.Cl.O=C1Nc2cc(Br)ccc2/C1=C1/Nc2ccccc2/C1=N\OCCN1CCN(CCO)CC1` [Compound 24, (2′Z-3E)-6-Bromoindirubin-3′-(O-{2-[4-(2-hydroxyethyl)piperazin-1-yl]ethyl}oxime) Dihydrochloride], the “inhibition of β-catenin phosphorylation” value in data set [4] is “most efficient”. `O=C1Nc2cc(Br)ccc2/C1=C1/Nc2ccccc2/C1=N\OCCN1CCN(CCOCCO)CC1` [Compound 15, (2′Z-3′E)-6-Bromoindirubin-3′-[O-(2-{4-[2-(2-hydroxyethoxy)-ethyl]piperazin-1-yl}ethyl)oxime]]: in data set [5], the “effect on circadian period length” value is on record as “gradual shortening of the period length”. Moreover, the IC50 in data set [2] turned out to be 900 nM.

For the compound `O=C1Nc2cc(Br)ccc2/C1=C1/Nc2ccccc2/C1=N\OCCN1CCCC1` [Compound 7, (2′Z-3′E)-6-Bromoindirubin-3′-[O-(2-pyrrolidin-1-ylethyl)oxime]], in data set [2], the IC50 turned out to be 500 nM. Consider `COCCN1CCN(CCO/N=C2/C(=C3/C(=O)Nc4cc(Br)ccc43)Nc3ccccc32)CC1` [Compound 25, (2′Z-3E)-6-Bromoindirubin-3′-(O-{2-[4-(2-methoxyethyl)piperazin-1-yl]ethyl}oxime) Dihydrochloride], for which the concentration for half-maximal inhibition (IC50) in data set [2] is 1000 nM.

For `O=C1Nc2cc(Br)ccc2/C1=C1/Nc2ccccc2/C1=N\OCCN(CCO)CCO` [Compound 9], in data set [4], the “inhibition of β-catenin phosphorylation” value is “most efficient”.

Consider `O=C1Nc2cc(Br)ccc2/C1=C1/Nc2ccccc2/C1=N\OCCN1CCN(CCOCCO)CC1` [Compound 26, (2′Z-3′E)-6-Bromoindirubin-3′-[O-(2-{4-[2-(2-hydroxyethoxy)-ethyl]piperazin-1-yl}ethyl)oxime] Dihydrochloride], for which, in data set [2], the IC50 stood at 500 nM. As to `CN(C)CCO/N=C1/C(=C2/C(=O)Nc3cc(Br)ccc32)Nc2ccccc21` [Compound 5, (2′Z-3′E)-6-Bromoindirubin-3′-[O-(2-dimethylaminoethyl)-oxime]], the “inhibition of β-catenin phosphorylation” value in data set [4] was “most efficient”.

As to `CN(CCON=C1C(=C2C(=O)Nc3cc(Br)ccc32)Nc2ccccc21)CC(O)CO.Cl` (stereo not drawn) [Compound 21, (2Z-3′E)-6-Bromoindirubin-3′-(O-{2-[N-methyl, N-(2,3-dihydroxypropyl)amino]ethyl}oxime] Hydrochloride], the solubility – broadly, the concentration that dissolves in the medium under given conditions – in data set [1] (double distilled water) was 1450 µg/mL. The IC50 in data set [2] was 150 nM; in data set [3], 23 nM.

Turning to `Cl.O=C1Nc2cc(Br)ccc2/C1=C1/Nc2ccccc2/C1=N\OCCN(CCO)CCO` [Compound 20], the “inhibition of β-catenin phosphorylation” value in data set [4] is listed as “most efficient”.

For `O=C1Nc2cc(Br)ccc2/C1=C1/Nc2ccccc2/C1=N\OCCO` [Compound 2, (2′Z-3′E)-6-Bromoindirubin-3′-[O-(2-hydroxyethyl)-oxime]], the values for the 50% inhibitory concentration (IC50) in data set [2] and in data set [3] were over 10000 nM and 3 nM, respectively. `CN(C)CCO/N=C1/C(=C2/C(=O)Nc3cc(Br)ccc32)Nc2ccccc21.Cl` [Compound 16, (2′Z-3′E)-6-Bromoindirubin-3′-[O-(2-dimethylaminoethyl)oxime] Hydrochloride]: in data set [4], the “inhibition of β-catenin phosphorylation” value is reported as “most efficient”.

On to `CCN(CC)C(=O)O/N=C1/C(=C2/C(=O)Nc3cc(Br)ccc32)Nc2ccccc21` [Compound 4, (2′Z-3′E)-6-Bromoindirubin-3′-[O-(N,N-diethylcarbamyl)-oxime]], for which, in data set [2], the concentration for half-maximal inhibition (IC50) is over 10000 nM. Regarding `CN1CCN(CCO/N=C2/C(=C3/C(=O)Nc4cc(Br)ccc43)Nc3ccccc32)CC1.Cl.Cl` [Compound 23, (2′Z-3′E)-6-Bromoindirubin-3′-{O-[2-(4-methylpiperazin-1-yl)ethyl]oxime} Dihydrochloride], the “inhibition of β-catenin phosphorylation” value in data set [4] is on record as “most efficient”. Consider `O=C1Nc2cc(Br)ccc2/C1=C1/Nc2ccccc2/C1=N\OCCBr` [Compound 1, (2′Z-3′E)-6-Bromoindirubin-3′-[O-(2-bromoethyl)-oxime]], for which the concentration for half-maximal inhibition (IC50) in data set [2] is over 10000 nM. On the same count and under the same terms, the figure for `O=C1Nc2cc(Br)ccc2/C1=C1/Nc2ccccc2/C1=N\OCCN1CCCC1` [Compound 18, (2′Z-3′E)-6-Bromoindirubin-3′-[O-(2-pyrrolidin-1-ylethyl)oxime] Hydrochloride] is 450 nM. Consider `CN1C(=O)C(=C2Nc3ccccc3C2=NO)c2ccc(Br)cc21` [1-methyl-6BIO, reference compound], for which the “inhibition of β-catenin phosphorylation” value in data set [4] was “ineffective”. Turning to `[Li]` [Lithium], the “effect on circadian period” value in data set [6] was “lengthens the period”. Take `O=C1Nc2cc(Br)ccc2/C1=C1/Nc2ccccc2/C1=N\OCCN1CCNCC1` [Compound 11, (2′Z-3′E)-6-Bromoindirubin-3′-[O-(2-piperazine-1-ylethyl)oxime]]: the “inhibition of β-catenin phosphorylation” value in data set [4] was “most efficient”.

The values above are taken from PMC2717725 (Journal of medicinal chemistry, 2008).
